The values that follow come from patent US9085605B2, “Chemical synthesis and anti-tumor and anti-metastatic effects of dual functional conjugate” (Shenzhen Salubris Pharmaceuticals Co., Ltd., priority 2010, dated 2015).

A word on the T/C: it is the ratio of treated to control. For orientation: TGI means the reduction of tumour growth relative to the control group. A lower TGI goes with a weaker effect on the tumour.

SMILES strings stand for the structures.

Assay [1] concerns human breast cancer line MDA-MB-231. The assay is described as follows: Tumor growth inhibition in nude mice xenograft model, MDA-MB-231. The procedure:
• 1. […] Drug administration dose were set as: 10 mg/kg, 15 mg/kg, and 20 mk/kg, drug administration volume was 0.2 mL/20 g. • 2. […] MDA [Peptide (P) 0.54 mg/mL (0.001M), Example 10], a colorless and clear liquid, was prepared by the commission, can be directly used after the repackaging in a sterile condition, stored at 4° C. […] Certificate NO. […] SYSK (BeiJing) 2004-0001. Experiment Methods:
The mice were divided into groups and administrated drug after 11 days.
The mice were divided into eight groups, each group had 6-8 mice. The groups contained Negative control. […] After grouping, all mice were administrated with drug by intraperitoneal injection once a day depends on their body weight.
Other groups were administered with drugs for 24 times successively. The experiment was completed 24 h after the last administration.
The mice were sacrificed, and tumors were isolated and their weight was measured, and the inhibition rate of tumor growth by drugs were calculated. […] Calculation methods and formula were omitted.

Assay [2] concerns 10 human tumor cell lines. Description: Antitumor activity screening in 10 human tumor cell lines. It counts as cell-based. From the text: In the invention, the compounds, MTC-301, MTC-302, MTC-303, MTC-304, MTC-305, MTC-306, MTC-307, MDC-308, MDC-403, MDC-404, MDC-405. MDC-406, MDC-407 and MDC-408 were screened their antitumor activity in 10 human tumor cell lines. […] The experimental results refer to FIGS. 13-16.

For the molecule `CC(NC(=O)/C=C/c1ccc(Cl)cc1)C(=O)N[C@@H](CCC(=O)NC(CCCCN)C(N)=O)C(N)=O` (some centres unmarked) [MDA], the “Tumor growth rate (in words)” value in assay [1] (MDA 0.54 mg/mL × 24) is on record as “slower than the tumor growth rate of the negative control group”. Moreover, in assay [1] (MDA 0.54 mg/mL × 24, i.p.), the RTV is listed as 15.06 ± 5.292, the T/C is listed as 83.5%, the inhibition of tumour growth (TGI) is on record as 30.3% and the “Tumor volume Beginning” value amounted to 141 ± 61.1 mm^3. Moreover, in assay [1] (MDA 0.54 mg/mL × 24, i.p.), the “Tumor volume End” value worked out at 1898 ± 775.4 mm^3 and the Tumor weight stood at 1.98 ± 0.744 g.
As to `CC(=O)O[C@@]12CO[C@@H]1C[C@H](O)[C@@]1(C)C(=O)[C@H](O)C3=C(C)[C@@H](OC(=O)[C@H](OC(=O)CCC(=O)NCCCCC(NC(=O)CC[C@H](NC(=O)C(C)NC(=O)/C=C/c4ccc(F)cc4F)C(N)=O)C(N)=O)[C@@H](NC(=O)OC(C)(C)C)c4ccccc4)C[C@@](O)([C@@H](OC(=O)c4ccccc4)[C@H]21)C3(C)C` (some centres unmarked) [MDC-403], the “50% growth inhibition (GI50) activity” value in assay [2] is reported as “in the same magnitude range as paclitaxel or docetaxel”.
Turning to `CC(=O)O[C@@]12CO[C@@H]1C[C@H](O)[C@@]1(C)C(=O)[C@H](O)C3=C(C)[C@@H](OC(=O)[C@H](OC(=O)CCC(=O)NCCCCC(NC(=O)CC[C@H](NC(=O)C(C)NC(=O)/C=C/c4ccc(Cl)cc4F)C(N)=O)C(N)=O)[C@@H](NC(=O)OC(C)(C)C)c4ccccc4)C[C@@](O)([C@@H](OC(=O)c4ccccc4)[C@H]21)C3(C)C` (some centres unmarked) [MDC-404], in assay [2], the “50% growth inhibition (GI50) activity” value is “in the same magnitude range as paclitaxel or docetaxel”.
Regarding `CC(=O)O[C@@]12CO[C@@H]1C[C@H](O)[C@@]1(C)C(=O)[C@H](O)C3=C(C)[C@@H](OC(=O)[C@H](OC(=O)CCC(=O)NCCCCC(NC(=O)CC[C@H](NC(=O)C(C)NC(=O)/C=C/c4ccc(F)cc4Cl)C(N)=O)C(N)=O)[C@@H](NC(=O)OC(C)(C)C)c4ccccc4)C[C@@](O)([C@@H](OC(=O)c4ccccc4)[C@H]21)C3(C)C` (some centres unmarked) [MDC-405], the “50% growth inhibition (GI50) activity” value in assay [2] is on record as “in the same magnitude range as paclitaxel or docetaxel”.
On to `CC(=O)O[C@@]12CO[C@@H]1C[C@H](O)[C@@]1(C)C(=O)[C@H](O)C3=C(C)[C@@H](OC(=O)[C@H](OC(=O)CCC(=O)NCCCCC(NC(=O)CC[C@H](NC(=O)C(C)NC(=O)/C=C/c4ccc(F)cc4)C(N)=O)C(N)=O)[C@@H](NC(=O)OC(C)(C)C)c4ccccc4)C[C@@](O)([C@@H](OC(=O)c4ccccc4)[C@H]21)C3(C)C` (some centres unmarked) [MDC-406], for which the “50% growth inhibition (GI50) activity” value in assay [2] is recorded as “in the same magnitude range as paclitaxel or docetaxel”.
`CC(=O)O[C@@]12CO[C@@H]1C[C@H](O)[C@@]1(C)C(=O)[C@H](O)C3=C(C)[C@@H](OC(=O)[C@H](OC(=O)CCC(=O)NCCCCC(NC(=O)CC[C@H](NC(=O)C(C)NC(=O)/C=C/c4cccc(F)c4)C(N)=O)C(N)=O)[C@@H](NC(=O)OC(C)(C)C)c4ccccc4)C[C@@](O)([C@@H](OC(=O)c4ccccc4)[C@H]21)C3(C)C` (some centres unmarked) [MDC-407]: the “50% growth inhibition (GI50) activity” value in assay [2] was “in the same magnitude range as paclitaxel or docetaxel”.
Turning to `CC(=O)O[C@@]12CO[C@@H]1C[C@H](O)[C@@]1(C)C(=O)[C@H](O)C3=C(C)[C@@H](OC(=O)[C@H](OC(=O)CCC(=O)NCCCCC(NC(=O)CC[C@H](NC(=O)C(C)NC(=O)/C=C/c4ccc(F)c(F)c4)C(N)=O)C(N)=O)[C@@H](NC(=O)OC(C)(C)C)c4ccccc4)C[C@@](O)([C@@H](OC(=O)c4ccccc4)[C@H]21)C3(C)C` (some centres unmarked) [MDC-408], the “50% growth inhibition (GI50) activity” value in assay [2] is given as “in the same magnitude range as paclitaxel or docetaxel”.
Take `CC(=O)O[C@H]1C(=O)[C@@]2(C)[C@H]([C@H](OC(=O)c3ccccc3)[C@]3(O)C[C@H](OC(=O)[C@H](OC(=O)CCC(=O)NCCCCC(NC(=O)CC[C@H](NC(=O)C(C)NC(=O)/C=C/c4ccc(O)cc4)C(N)=O)C(N)=O)[C@@H](NC(=O)c4ccccc4)c4ccccc4)C(C)=C1C3(C)C)[C@]1(OC(C)=O)CO[C@@H]1C[C@@H]2O` (some centres unmarked) [MTC-301]: the “50% growth inhibition (GI50) activity” value in assay [2] is listed as “in the same magnitude range as paclitaxel or docetaxel”.
